From ChEMBL document CHEMBL3751695, “Cationic lipid-conjugated hydrocortisone as selective antitumor agent” (Eur J Med Chem, 2016)
Calls of active or inactive are those of the source. No cut-off for these calls is given here.

What was measured:
[1] = Cytotoxicity against mouse B16F10 cells after 72 hrs by MTT assay; format: functional, cell-based; conditions: B16-F10, 72 h
A549 [2] = assay: Cytotoxicity against human A549 cells after 72 hrs by MTT assay; format: functional, cell-based; conditions: A549, 72 h
MCF7 = assay: Cytotoxicity against human MCF7 cells after 72 hrs by MTT assay; format: functional, cell-based; conditions: MCF7, 72 h
RAW264.7 [3] = assay: Cytotoxicity against mouse RAW264.7 cells after 72 hrs by MTT assay; format: cell-based; conditions: RAW264.7, 72 h
[4] = Cytotoxicity against mouse NIH/3T3 cells after 72 hrs by MTT assay; format: cell-based; conditions: NIH3T3, 72 h
RAW264.7 [5] = assay: Induction of apoptosis in mouse RAW264.7 cells assessed as late apoptotic cells at 20 uM after 24 hrs by annexin-V-FITC/propidium iodide staining based flow cytometry (reference value: 5.64 %); format: cell-based; conditions: raw264.7, 24 h
RAW264.7 [6] = assay: Induction of apoptosis in mouse RAW264.7 cells assessed as necrotic cells at 20 uM after 24 hrs by annexin-V-FITC/propidium iodide staining based flow cytometry (reference value: 1.81%); format: cell-based; conditions: raw264.7, 24 h
[7] = Induction of apoptosis in mouse NIH/3T3 cells assessed as viable cells at 20 uM after 24 hrs by annexin-V-FITC/propidium iodide staining based flow cytometry (reference value: 99.06 %); format: cell-based, NIH3T3; conditions: read-out: Activity
[8] = Induction of apoptosis in mouse NIH/3T3 cells assessed as early apoptotic cells at 20 uM after 24 hrs by annexin-V-FITC/propidium iodide staining based flow cytometry (reference value: 0.43 %); format: cell-based; conditions: nih3t3, 24 h
[9] = Induction of apoptosis in mouse NIH/3T3 cells assessed as late apoptotic cells at 20 uM after 24 hrs by annexin-V-FITC/propidium iodide staining based flow cytometry (reference value: 0.28 %); format: cell-based; conditions: nih3t3, 24 h
[10] = Induction of apoptosis in mouse NIH/3T3 cells assessed as necrotic cells at 20 uM after 24 hrs by annexin-V-FITC/propidium iodide staining based flow cytometry (reference value: 0.24 %); format: cell-based; conditions: nih3t3, 24 h
[11] = Cytotoxicity against mouse B16F10 cells at 10 uM after 72 hrs by MTT assay in presence of 10 uM HYD; format: functional, B16-F10
[12] = Cytotoxicity against mouse B16F10 cells at 10 and 20 uM after 72 hrs by MTT assay; format: functional, B16-F10
[13] = Cytotoxicity against mouse B16F10 cells at 20 uM after 72 hrs by MTT assay in presence of 20 uM HYD; format: functional, B16-F10
A549 [14] = assay: Induction of apoptosis in human A549 cells assessed as viable cells at 20 uM after 24 hrs by annexin-V-FITC/propidium iodide staining based flow cytometry (reference value: 87.96 %); format: functional; conditions: A549, 24 h, read-out: Activity
A549 [15] = assay: Induction of apoptosis in human A549 cells assessed as early apoptotic cells at 20 uM after 24 hrs by annexin-V-FITC/propidium iodide staining based flow cytometry (reference value: 1.41 %); format: functional
A549 [16] = assay: Induction of apoptosis in human A549 cells assessed as late apoptotic cells at 20 uM after 24 hrs by annexin-V-FITC/propidium iodide staining based flow cytometry (reference value: 7.40 %); format: functional
A549 [17] = assay: Induction of apoptosis in human A549 cells assessed as necrotic cells at 20 uM after 24 hrs by annexin-V-FITC/propidium iodide staining based flow cytometry (reference value: 3.23 %); format: functional
B16-F10 [18] = assay: Induction of apoptosis in mouse B16F10 cells assessed as viable cells at 20 uM after 24 hrs by annexin-V-FITC/propidium iodide staining based flow cytometry (reference value: 93.66 %); format: functional; conditions: B16-F10, 24 h, read-out: Activity
B16-F10 [19] = assay: Induction of apoptosis in mouse B16F10 cells assessed as early apoptotic cells at 20 uM after 24 hrs by annexin-V-FITC/propidium iodide staining based flow cytometry (reference value: 0.46 %); format: functional
B16-F10 [20] = assay: Induction of apoptosis in mouse B16F10 cells assessed as late apoptotic cells at 20 uM after 24 hrs by annexin-V-FITC/propidium iodide staining based flow cytometry (reference value: 4.47 %); format: functional
B16-F10 [21] = assay: Induction of apoptosis in mouse B16F10 cells assessed as necrotic cells at 20 uM after 24 hrs by annexin-V-FITC/propidium iodide staining based flow cytometry (reference value: 1.41 %); format: functional
[22] = Induction of apoptosis in mouse RAW264.7 cells assessed as viable cells at 20 uM after 24 hrs by annexin-V-FITC/propidium iodide staining based flow cytometry (reference value: 89.11 %); format: cell-based; conditions: read-out: Activity
RAW264.7 [23] = assay: Induction of apoptosis in mouse RAW264.7 cells assessed as early apoptotic cells at 20 uM after 24 hrs by annexin-V-FITC/propidium iodide staining based flow cytometry (reference value: 3.44 %); format: cell-based; conditions: raw264.7, 24 h
B16-F10 [24] = assay: Induction of apoptosis in mouse B16F10 cells assessed as increased Bax expression at 20 uM after 36 hrs by western blot analysis; format: functional, cell-based
B16-F10 [25] = assay: Induction of apoptosis in mouse B16F10 cells assessed as increase in cleaved caspase 3 level at 20 uM after 36 hrs by western blot analysis; format: functional, cell-based
B16-F10 [26] = assay: Induction of apoptosis in mouse B16F10 cells assessed as increase in p53 expression at 20 uM after 36 hrs by […]; format: functional, cell-based
[27] = Cell cycle arrest in mouse B16F10 cells assessed as accumulation at subG0/G1 phase at 20 uM after 24 hrs by propidium iodide staining based flow cytometry (reference value: 40.7 %); format: functional; conditions: B16-F10
[28] = Cell cycle arrest in mouse B16F10 cells assessed as accumulation at G1 phase at 20 uM after 24 hrs by propidium iodide staining based flow cytometry (reference value: 38.8 %); format: functional; conditions: B16-F10
[29] = Cell cycle arrest in mouse B16F10 cells assessed as accumulation at S phase at 20 uM after 24 hrs by propidium iodide staining based flow cytometry (reference value: 5.4 %); format: functional; conditions: B16-F10
[30] = Cell cycle arrest in mouse B16F10 cells assessed as accumulation at G2/M phase at 20 uM after 24 hrs by propidium iodide staining based flow cytometry (reference value: 15.2 %); format: functional; conditions: B16-F10
B16-F10 [31] = assay: Antitumor activity against mouse B16F10 cells xenografted in C57BL/J mouse assessed as inhibition of tumor growth at 6.11 mg/kg, ip; format: functional, organism-based
[32] = Toxicity in C57BL/J mouse xenografted with mouse B16F10 cells assessed as mortality rate at 6.11 mg/kg, ip measured 45 days after tumor inoculation; format: organism-based, B16-F10; conditions: in vivo, read-out: Activity
Gallus gallus = species: Gallus gallus; assay: Antiangiogenic activity in chicken embryo assessed as inhibition of neovascularization at 40 uM after 4 hrs by microscopic analysis; format: functional, tissue-based
B16-F10 [33] = assay: Induction of apoptosis in mouse B16F10 cells assessed as increase in ratio of Bax/Bcl2 level at 20 uM after 36 hrs by western blot analysis (reference value: 0.2); format: functional
B16-F10 [34] = assay: Induction of apoptosis in mouse B16F10 cells assessed as increase in cytochrome C level at 20 uM after 36 hrs by western blot analysis; format: functional, cell-based
[35] = Antitumor activity in mouse B16F10 cells xenografted in C57BL/J mouse assessed as increase in ratio of Bax/Bcl2 in tumor lysates at 6.11 mg/kg, ip by western blot analysis (reference value: 0.4); format: functional, Neoplasm, B16-F10
[36] = Cytotoxicity against human SKOV3 cells after 72 hrs by MTT assay; format: functional, cell-based; conditions: SK-OV-3, 72 h
HeLa = assay: Cytotoxicity against human HeLa cells after 72 hrs by MTT assay; format: functional, cell-based
MDA-MB-231 [37] = assay: Induction of apoptosis in human MDA-MB-231 cells assessed as viable cells at 20 uM after 24 hrs by annexin-V-FITC/propidium iodide staining based flow cytometry (reference value: 90.77 %); format: functional; conditions: MDA-MB-231, 24 h, read-out: Activity
MDA-MB-231 [38] = assay: Induction of apoptosis in human MDA-MB-231 cells assessed as early apoptotic cells at 20 uM after 24 hrs by annexin-V-FITC/propidium iodide staining based flow cytometry (reference value: 0.58 %); format: functional
MDA-MB-231 [39] = assay: Induction of apoptosis in human MDA-MB-231 cells assessed as late apoptotic cells at 20 uM after 24 hrs by annexin-V-FITC/propidium iodide staining based flow cytometry (reference value: 3.25 %); format: functional
MDA-MB-231 [40] = assay: Induction of apoptosis in human MDA-MB-231 cells assessed as necrotic cells at 20 uM after 24 hrs by annexin-V-FITC/propidium iodide staining based flow cytometry (reference value: 5.40 %); format: functional

| SMILES | IC50 [1] [µM] | IC50 (A549 [2]) [µM] | IC50 (MCF7) [µM] | IC50 (RAW264.7 [3]) [µM] | IC50 [4] [µM] | Activity (RAW264.7 [5]) [%] | Activity (RAW264.7 [6]) [%] | viability at 24 h, 20 µM [7] [%] | Activity [8] [%] | Activity [9] [%] | Activity [10] [%] | viability at 20 µM (A549 [14]) [%] | Activity (A549 [15]) [%] | Activity (A549 [16]) [%] | Activity (A549 [17]) [%] | viability at 20 µM (B16-F10 [18]) [%] | Activity (B16-F10 [19]) [%] | Activity (B16-F10 [20]) [%] | Activity (B16-F10 [21]) [%] | viability at 24 h, 20 µM [22] [%] | other results |
| --- | --- | --- | --- | --- | --- | --- | --- | --- | --- | --- | --- | --- | --- | --- | --- | --- | --- | --- | --- | --- | --- |
| CCCCCCCCCC[N+](C)(CCCCCCCCCC)CCNC(=O)[C@@]1(O)CC[C@H]2[C@@H]3CCC4=CC(=O)CC[C@]4(C)[C@H]3[C@@H](O)C[C@@]21C | 4.7 | 12.6 | 3.7 | 6.2 | 3.77 |  |  |  |  |  |  |  |  |  |  |  |  |  |  |  |  |
| CCCCCCCCCCCCCC[N+](C)(CCCCCCCCCCCCCC)CCNC(=O)[C@@]1(O)CC[C@H]2[C@@H]3CCC4=CC(=O)CC[C@]4(C)[C@H]3[C@@H](O)C[C@@]21C | 16.2 | 3.3 | 13.6 | 8.77 | 4.85 |  |  |  |  |  |  |  |  |  |  |  |  |  |  |  |  |
| CCCCCCCCCCCCCCCC[N+](C)(CCCCCCCCCCCCCCCC)CCNC(=O)OC(C)(C)C.[Cl-] |  |  |  |  |  | 4.18 | 0.86 | 94.9 | 0.94 | 0.96 | 3.23 | 81.7 | 2.7 | 13.95 | 1.65 | 81.5 | 1.75 | 12.56 | 4.16 | 91.3 | Activity [11]: 20%; Activity [12]: 20%; Activity [13]: 20%; Activity (RAW264.7 [23]): 3.66% |
| C[C@]12CCC(=O)C=C1CC[C@@H]1[C@@H]2[C@@H](O)C[C@@]2(C)[C@H]1CC[C@]2(O)C(=O)CO [HYDROCORTISONE] | > 20 | > 20 | > 20 | > 20 | > 20 | 3.13 | 0.69 | 99.5 | 0.01 | 0.16 | 0.1 | 88.4 | 1.55 | 7.09 | 2.97 | 89 | 0.77 | 9.14 | 1.04 | 93.8 | Activity (B16-F10 [24]): Active; Activity (B16-F10 [25]): Active; Activity (B16-F10 [26]): Active; Activity [27]: 56.6%; Activity [28]: 20.9%; Activity [29]: 4.6%; Activity [30]: 17.9%; inhibition (B16-F10 [31]): Active; mortality at 1080 h [32]: 70%; inhibition (Gallus gallus): inactive; Ratio (B16-F10 [33]): 0.3; Activity (B16-F10 [34]): Active; Ratio [35]: 0.8; IC50 [36]: > 20 µM; IC50 (HeLa): > 20 µM; viability at 20 µM (MDA-MB-231 [37]): 87.4%; Activity (MDA-MB-231 [38]): 2.05%; Activity (MDA-MB-231 [39]): 8.1%; Activity (MDA-MB-231 [40]): 2.46%; Activity (RAW264.7 [23]): 2.39% |
| CCCCCCCCCCCC[N+](C)(CCCCCCCCCCCC)CCNC(=O)[C@@]1(O)CC[C@H]2[C@@H]3CCC4=CC(=O)CC[C@]4(C)[C@H]3[C@@H](O)C[C@@]21C | 3.4 | 3.4 | 4.6 | 4 | 3.36 |  |  |  |  |  |  |  |  |  |  |  |  |  |  |  |  |
| CCCCCCCC[N+](C)(CCCCCCCC)CCNC(=O)[C@@]1(O)CC[C@H]2[C@@H]3CCC4=CC(=O)CC[C@]4(C)[C@H]3[C@@H](O)C[C@@]21C | 4.5 | 17.6 | 6.7 | 12.7 | 7.4 |  |  |  |  |  |  |  |  |  |  |  |  |  |  |  |  |
